According to patent US12304910B2, “Janus kinase (JAK) family inhibitor, preparation of same, and applications thereof” (JIANGSU VCARE PHARMATECH CO., LTD., priority 2019, dated 2025):

Legend:
[1] = target: T1, JAK3 (Homo sapiens, UniProt P52333); experiment: Kinase activity test (γ33P-ATP isotopic method), JAK3; type: biochemical; settings: 33P-ATP 10 μM, 2 h reaction
T1 sequence (P52333 1-1124): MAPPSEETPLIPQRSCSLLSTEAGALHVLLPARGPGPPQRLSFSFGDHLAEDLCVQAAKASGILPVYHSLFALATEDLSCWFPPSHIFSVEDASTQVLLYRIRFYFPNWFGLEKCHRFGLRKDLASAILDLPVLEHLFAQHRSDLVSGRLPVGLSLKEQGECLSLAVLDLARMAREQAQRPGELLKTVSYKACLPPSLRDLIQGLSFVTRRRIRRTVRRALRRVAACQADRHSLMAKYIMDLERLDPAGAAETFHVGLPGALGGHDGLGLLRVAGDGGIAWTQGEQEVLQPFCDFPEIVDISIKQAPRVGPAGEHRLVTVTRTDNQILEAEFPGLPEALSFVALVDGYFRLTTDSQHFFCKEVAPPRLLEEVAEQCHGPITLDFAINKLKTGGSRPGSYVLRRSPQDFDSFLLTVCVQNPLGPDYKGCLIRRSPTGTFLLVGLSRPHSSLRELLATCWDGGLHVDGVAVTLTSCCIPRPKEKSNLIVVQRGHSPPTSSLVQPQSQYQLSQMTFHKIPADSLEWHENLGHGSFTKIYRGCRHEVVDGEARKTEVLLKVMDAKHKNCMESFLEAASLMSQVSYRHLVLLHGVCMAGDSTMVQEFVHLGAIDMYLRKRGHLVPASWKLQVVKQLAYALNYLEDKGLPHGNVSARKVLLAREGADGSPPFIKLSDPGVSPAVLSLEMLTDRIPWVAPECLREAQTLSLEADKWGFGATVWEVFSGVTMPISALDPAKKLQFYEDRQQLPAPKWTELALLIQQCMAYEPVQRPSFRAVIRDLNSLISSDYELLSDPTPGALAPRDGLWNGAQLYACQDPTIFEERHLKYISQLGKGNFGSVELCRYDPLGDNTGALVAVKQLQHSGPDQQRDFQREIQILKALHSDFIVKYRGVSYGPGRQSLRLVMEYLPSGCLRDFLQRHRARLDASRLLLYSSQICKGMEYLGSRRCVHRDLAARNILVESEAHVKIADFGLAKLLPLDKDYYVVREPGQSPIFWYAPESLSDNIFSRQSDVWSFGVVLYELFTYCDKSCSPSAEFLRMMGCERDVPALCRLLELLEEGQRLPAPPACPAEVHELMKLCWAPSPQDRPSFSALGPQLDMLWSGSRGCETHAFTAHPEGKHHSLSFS
Experimental: This experiment adopted a γ^33p-ATP isotopic test method to test the inhibitory effect of a compound on kinases JAK1, JAK2, JAK3 and TYK2, and obtained a half inhibitory concentration IC50 of the compound for inhibiting activity of the kinase.
20 mM 4-hydroxyethylpiperazine ethanesulfonic acid buffer (Hepes, pH 7.5), 10 mM magnesium chloride (MgCl2), 1 mM ethylene glycol diethyl ether diamine tetraacetic acid (EGTA), 0.02% dodecyl polyethylene glycol ether (Brij35), 0.02 mg/ml bovine serum albumin (BSA), 0.1 mM sodium vanadate (Na3VO4), 2 mM dithiothreitol (DTT), and 1% dimethylsulfoxide (DMSO).
A compound is dissolved with 100% DMSO to a specific concentration, and then subjected to gradient dilution by an automatic sampling device to obtain the samples to be tested with different concentrations (DMSO solutions).
3.1 diluting the reaction substrate with the basic reaction buffer;
3.2 adding the kinase into the substrate solution, and gently mixing well;
3.3 adding, by the automatic sampling system, the 100% DMSO diluted compounds with different concentrations into the kinase solution, and incubating for 20 min at room temperature; and
3.4 adding ^33p-ATP (10 μM, 10 μCi/μl) at room temperature to initiate the kinase reaction for a duration of 2 h.
The unreacted ATP and the reaction-generated […] in the reaction were removed by an ion exchange filtering system, and then the amount of radioactivity of ^33p isotope in the substrate was detected.
According to the amount of radioactivity, the kinase activities in the systems added with the inhibitors of different concentrations were calculated, to obtain the inhibitors' effects of the compounds of different concentrations on the kinase activity; and fitting was performed with graphpad prism to obtain the inhibitory IC50 values of the compounds.

[2] = Liver microsome test (metabolic stability); type: in vitro ADME, human
Experimental: In an incubation system with a total volume of 250 μL, an incubation solution of hum an liver microsomes containing 0.5 mg/mL protein was formulated with a 50 mmol/L PBS buffer (pH=7.4). Before the start of incubation, 2.5 μL of a 100 μmol/L compound to be tested was mixed with 197.5 μL of the above incubation buffer, pre-incubated for 5 min in a 37° C. water bath, and then added with 50 μL of a reducing coenzyme II solution (5 mmol/L) that was likewise pre-incubated for 5 min to start a reaction (in the reaction system, the protein content of liver microsomes from various species was 0.5 g/L, and the final concentration of the compound to be tested was 1 μmol/L), incubated in a 37° C. water bath with shaking, and taken out at 0, 5, 15, 30, and 60 min respectively. 600 μL of a methanol solution of mixed positive and negative internal standards with internal standards Terfenadine (positive ion internal standard, 25 ng/mL) and Tolbutamide (negative ion internal standard, 50 ng/mL) was immediately added to terminate the reaction. The incubation solution after termination was shaken for 2 min and centrifuged (4° C., 16000 r/min) for 10 min, and the supernatant was taken for LC-MS/MS detection to quantitatively analyze the remaining amount of the parent drug. (DMSO=0.1%).
The concentration of the compound at 0 mi incubation was regarded as 100%, and the concentrations at other incubation time points were converted into the remaining percentages. The natural logarithm of the remaining percentage at each time point was linearly regressed against the incubation time, and the slope k was calculated. According to the formula T1/2=−0.693/k, the in vitro half-life was calculated. Clearance in liver microsomes (CLint (μL/min/mg protein)=Ln (2)*1000/T1/2 (min/Protein Conc (mg/ml)).

[3] = human liver microsomes, conclusion from Table 2

- IC50 [1]: 3.1 nM
- Remaining % (60 min) ([2]; human liver microsomes 0.5 mg/mL protein, compound 1 μmol/L, 37° C., 60 min): 91.9%
- metabolic stability in liver microsomes (in words) [2, 3]: excellent metabolic activity in liver
- half-life at 1 μmol/L ([2]; pH 7.4, human liver microsomes 0.5 mg/mL protein, compound 1 μmol/L, 37° C.): 330 min
- microsomal CLint at 1 μmol/L ([2]; pH 7.4, human liver microsomes 0.5 mg/mL protein, compound 1 μmol/L, 37° C., read-out: Clint (μL/min/mg protein)): 4.2 µL/min/mg
SMILES: NC(=O)c1cnc2[nH]ccc2c1NN1CCC[C@H](C(=O)NCC(F)F)C1 [Example 2, (S)-4-(3-(2,2-difluoroethylcarbamoyl)piperidine-1-amino)-1H-7-azaindole-5-carboxamide]
- metabolic half-life in liver microsomes compared with Tofacitinib (in words) [2, 3]: significantly superior to the positive drug Tofacitinib
